# Data: PubChem BioAssay AID1845216 (Molecular Pharmacology Branch, DTP, NCI, 2023)
# System: SW 982 tumor spheroid viability
# Experiment: Anticancer human tumor SW 982 cell line growth inhibition;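 further: spheroids exposed to compound for 7 days before readout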
# Details: spheroids with HUVEC and MSC; for IC50: curve of first compound; for viability, T/C: stronger effect = lower value
# Outline: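 Single agents and combinations were tested on spheroids built from tumor cells plus HUVEC and hMSC, at half-log dilutions starting at or near clinical Cmax, else 10 microM; final DMSO 0.25% (v/v).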
structure (smiles),measurement,setting,value
CC(C)n1c(=O)n(C)c2cnc3cc(F)c(-c4ccc(OCCCN5CCCCC5)nc4)cc3c21 + Cn1nnc2c(C(N)=O)ncn2c1=O,IC50,second compound 1 µM,> 10 µM
same,IC50,second compound 3.16 µM,7.44 µM
same,IC50,second compound 10 µM,4.91 µM
same,IC50,second compound 31.6 µM,3.72 µM
same,IC50,second compound 100 µM,1.88 µM
same,"viability, T/C","second compound 1 µM, first compound 0.0316 µM",91.7%
same,"viability, T/C","second compound 1 µM, first compound 0.1 µM",91.3%
same,"viability, T/C","second compound 1 µM, first compound 0.316 µM",91.5%
same,"viability, T/C","second compound 1 µM, first compound 1 µM",85.4%
same,"viability, T/C","second compound 1 µM, first compound 3.16 µM",68.1%
same,"viability, T/C","second compound 1 µM, first compound 10 µM",56.7%
same,"viability, T/C","second compound 3.16 µM, first compound 0.0316 µM",91%
same,"viability, T/C","second compound 3.16 µM, first compound 0.1 µM",84%
same,"viability, T/C","second compound 3.16 µM, first compound 0.316 µM",85.8%
same,"viability, T/C","second compound 3.16 µM, first compound 1 µM",84.2%
same,"viability, T/C","second compound 3.16 µM, first compound 3.16 µM",66.4%
same,"viability, T/C","second compound 3.16 µM, first compound 10 µM",44.3%
same,"viability, T/C","second compound 10 µM, first compound 0.0316 µM",75.2%
same,"viability, T/C","second compound 10 µM, first compound 0.1 µM",75.5%
same,"viability, T/C","second compound 10 µM, first compound 0.316 µM",78.5%
same,"viability, T/C","second compound 10 µM, first compound 1 µM",72.7%
same,"viability, T/C","second compound 10 µM, first compound 3.16 µM",55.8%
same,"viability, T/C","second compound 10 µM, first compound 10 µM",40.6%
same,"viability, T/C","second compound 31.6 µM, first compound 0.0316 µM",68.3%
same,"viability, T/C","second compound 31.6 µM, first compound 0.1 µM",70%
same,"viability, T/C","second compound 31.6 µM, first compound 0.316 µM",68.8%
same,"viability, T/C","second compound 31.6 µM, first compound 1 µM",62%
same,"viability, T/C","second compound 31.6 µM, first compound 3.16 µM",52.5%
same,"viability, T/C","second compound 31.6 µM, first compound 10 µM",35%
same,"viability, T/C","second compound 100 µM, first compound 0.0316 µM",55.1%
same,"viability, T/C","second compound 100 µM, first compound 0.1 µM",57.4%
same,"viability, T/C","second compound 100 µM, first compound 0.316 µM",55.2%
same,"viability, T/C","second compound 100 µM, first compound 1 µM",54%
same,"viability, T/C","second compound 100 µM, first compound 3.16 µM",46.4%
same,"viability, T/C","second compound 100 µM, first compound 10 µM",37%
